PubChem BioAssay AID179 (DTP/NCI, 2004)
pEC50, pIC50: −log10 of the molar value. Active and inactive are the calls of the source.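 How the source made its calls: active means compounds giving half or more protection of infected cells from virus-caused growth loss, again on retest; inactive means the rest.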 Where a SMILES comes first, the peptide text is derived from it.

System: CEM cells HIV-1 protection, formazan growth assay
Assay: NCI AIDS Antiviral Assay
Conditions: for pIC50: measured here: growth of uninfected CEM cells
Procedure, shortened: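 Category rules: moderately active means at least 50% protection on retest, and confirmed active means 100% protection reproducibly. The underlying data came from a formazan growth assay in HIV-1-infected CEM cells.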

| SMILES | pEC50 | pIC50 | outcome |
| --- | --- | --- | --- |
| CC1S(=O)(=O)OCCOS1(=O)=O | < 2.94 | 3.91 | – |
| O=c1cc(-c2ccc3c(c2)OCO3)oc2c(Cl)cc(Cl)cc12 | < 4.00 | 4.24 | – |
| CC1(C)C2C3CCC2C2C[S+]1CC23 | < 3.79 | 3.97 | – |
| COc1ccc(C2CC(=O)CC(c3ccc(OC)cc3)C23C(=O)CCCC3=O)cc1 (stereo not given) | < 3.70 | < 3.70 | – |
| O=C(CN1CCOCC1)Nc1ccc2c(c1)C1Oc3ccccc3CC1CO2 (stereo not given) | – | – | inactive |
| Clc1cccc(NC(c2ccccc2)=[N+]2CCCCC2)c1 | < 3.70 | 4.51 | – |
| COc1cc(C2c3cccc4cccc(c34)C3CCC(=O)N32)cc(O)c1O (stereo not given) | 5.52 | 5.03 | – |
| N#C/C(=C/c1ccco1)C(=O)c1ccccc1 | < 3.79 | < 3.79 | – |
| O=c1oc2ccccc2nc1/C=C(\O)c1ccc(Cl)cc1 | < 3.70 | 4.19 | – |
| CCN(CC)CCNc1ccc([N+](=O)[O-])c2nc3ccc(OC)cc3c(NCCN(CC)CC)c12 | < 4.00 | 6.75 | – |
| O=C1C(OC(=O)c2ccccc2)=C(c2ccc(O)cc2)C(=O)C(OC(=O)c2ccccc2)=C1c1ccc(O)cc1 | < 4.40 | < 4.40 | – |
| O=C1Nc2cccnc2NC2=C1CSC2 | < 3.70 | < 3.70 | – |
| OC1c2ccccc2-c2nc3cccccc-3c21 (stereo not given) | < 3.81 | 4.62 | – |
| COc1ccc(NC(=O)CC(=O)n2nc(C)c(N=Nc3ccc(C)c(C)c3)c2C)cc1 | < 3.70 | < 3.70 | – |
| COC(=O)/C(=C\c1ccc(N(CCC#N)CCC#N)cc1)NC(=O)c1cc([N+](=O)[O-])ccc1Cl | < 4.13 | < 4.13 | – |
| O=C(O)CCCCCCCCCCCOc1ccccc1 | < 3.70 | 4.20 | – |
| CCOC(=O)/N=c1/nc2ccn(C)c2c(NC(=O)OCC)s1 | < 3.68 | < 3.68 | – |
| CCC(CCN)(CCN)[N+](=O)[O-] | < 3.70 | < 3.70 | – |
| CCOC(=O)/C(=C\c1cccc(C)c1)C(C)=O | < 3.39 | 4.20 | – |
| COc1ccc2ccccc2c1C1OC(=O)c2ccccc21 (stereo not given) | < 4.33 | 4.54 | – |
| O=C(NCCNCCNC(=O)C(F)(F)F)C(F)(F)F | < 3.70 | < 3.70 | – |
| CC1N=C(c2ccccc2)c2cc(Cl)ccc2NC1=O (stereo not given) | < 4.74 | < 4.74 | – |

| SMILES | pEC50 | pIC50 | outcome |
| --- | --- | --- | --- |
| COc1cc(C(=O)[O][Sn]([c]2ccccc2)([c]2ccccc2)[c]2ccccc2)cc(OC)c1OC | < 3.70 | 7.20 | – |
| CCOC(=O)c1ccc[c]([Sb](=[O])([OH])[OH])c1 | 5.31 | 3.40 | – |
| CCOc1c(Cc2ccccc2)c(=O)n2c3ccccc3n3c(=O)n(C)c(=O)c1c23 | < 5.19 | < 5.19 | – |
| COC(=O)C12CCC(CC1=O)C2(C)C (stereo not given) | < 3.60 | < 3.60 | – |
| O=[N+]([O-])c1ccc([As](=O)(O)O)cc1 | < 3.70 | < 3.70 | – |
| CC1=CC(=O)C2[C@@H](C1)C1(C)C(=O)C34OC(=O)C[C@@](C)([C@H]1C(=O)[C@@H]2C)[C@]3(C)CC[C@]12C[C@@H](C)C[C@H](CN41)O2 (stereo not given in full) | – | – | inactive |
| Cc1cc(NS(=O)(=O)c2ccc(NC(=O)c3ccccc3SC(=O)CCCC[n+]3ccccc3)cc2)nc(C)n1 | 4.58 | 3.97 | – |
| CC(C)C(N=C1CC2CCC1(C(=O)Nc1ccccc1O)C2(C)C)c1ccccc1 (stereo not given) | 4.70 | 4.49 | – |
| CC(C)OP(=O)(OC(C)C)C([CH2][Sn]([CH3])([CH3])[Cl])P(=O)(OC(C)C)OC(C)C | < 3.34 | 5.08 | – |
| CCCC(=O)Oc1c(Cl)cc(C(=CCC[C@H]2CC[C@@]3(C)[C@@H](CC[C@@H]4[C@@H]3CC[C@]3(C)[C@@H]([C@H](C)CCCC(C)C)CC[C@@H]43)C2)c2cc(Cl)c(OC(=O)CCC)c(C(=O)O)c2)cc1C(=O)O | 4.10 | < 4.00 | – |
| COc1ccc2c(c1O)-c1c(OC)c(OC)cc3c1C(C2)N(C)CC3 (stereo not given) | < 3.70 | < 3.70 | – |
| C[C@]12CCNC(=O)C=C1CC[C@@H]1C2CC[C@@]2(C)C1CC[C@@H]2O (stereo not given in full) | – | – | inactive |
| CC(=O)OCC1OC(n2c(=O)n(-c3ccccc3)c(=O)c3cc(Br)cc(Br)c32)C(OC(C)=O)C(OC(C)=O)C1OC(C)=O (stereo not given) | < 4.86 | < 4.86 | – |
| Cc1cc2c(c(C=NCc3ccccc3)c1)OC1(C=C2)Oc2ccccc2C(=O)N1C (stereo not given) | < 3.70 | 4.28 | – |
| NCCCCCC(=O)O | < 3.70 | < 3.70 | – |
| O=c1[nH]nc(NCc2ccccc2)c2nnn(Cc3ccccc3)c12 | < 3.70 | < 3.70 | – |
| O=c1ccc2ccc3occc(=O)c3c2o1 | < 3.92 | 3.99 | – |
| CN(/N=N/N(C)c1ccccc1)c1ccccc1 | < 3.70 | < 3.70 | – |
| CCc1ccc(/C(C#N)=C/c2ccccc2Cl)cc1 | < 3.70 | 4.56 | – |
| Clc1ccc(CNc2nc(Cl)c3[nH]cnc3n2)cc1Cl | < 3.70 | 4.64 | – |
| O=C1NCC2(CCNCC2)N1c1ccccc1 | < 3.70 | < 3.70 | – |
| COC(=O)C1=CC(=O)OC1(OO)c1ccc(Br)cc1 (stereo not given) | < 3.70 | 4.41 | – |

| SMILES | pEC50 | pIC50 | outcome |
| --- | --- | --- | --- |
| CC(C)(CO)/[N+]([O-])=C/c1ccccc1 | < 3.70 | < 3.70 | – |
| O=C(O)C1=CN(c2ccncc2)C(c2ccco2)=CC1c1ccccc1[N+](=O)[O-] (stereo not given) | < 3.70 | 5.32 | – |
| CC(=O)[O-].[Zn].c1ccc(/C(=N\Nc2ccccn2)c2ccccn2)cc1 | – | – | inactive |
| CC(=O)OCC1OC(n2c(=S)[nH]c(-c3ccccc3)c(C#N)c2=O)C(OC(C)=O)C(OC(C)=O)C1OC(C)=O (stereo not given) | < 3.70 | 3.77 | – |
| CC(=O)OCC1OC(n2c(C)cc(-c3ccc(Cl)cc3)c(C#N)c2=S)C(OC(C)=O)C(OC(C)=O)C1OC(C)=O (stereo not given) | < 3.70 | 4.52 | – |
| Cc1nc2c(nc1C)C(=O)C1=C(C2=O)C2C=CC1CC2 | < 4.15 | 5.79 | – |
| Cc1ccc(/C=C2\CCC/C(=C\c3ccc(O)c(CN4CCCCC4)c3)C2=O)cc1 | < 4.00 | – | – |
| Cc1cc(=O)n2c3c(c4c(cc13)c(CO)cc(=O)n4C)OC2 | – | – | inactive |
| CNc1nncc2[nH]cnc12 | < 3.70 | < 3.70 | – |
| COc1cccc(NC(=S)/C(=C(\[O-])c2ccc([N+](=O)[O-])cc2)[n+]2ccc(C(C)C)cc2)c1 | < 3.70 | < 3.70 | – |
| C[C@H](CCc1nc2ccccc2n1CCN(C)C)[C@H]1CC[C@H]2[C@@H]3CC[C@@H]4C[C@H](O)CC[C@]4(C)[C@H]3CC[C@]12C | 5.81 | 5.32 | – |
| CN1CCCC2[C@@H]3CCC4c5nonc5CC[C@]4(C)C3CC[C@@]21C (stereo not given in full) | < 4.26 | < 4.26 | – |
| CCC(C)C1NC(=O)C2CCCN2C(=O)CNC(=O)C(C)NC(=O)C(Cc2ccccc2)NC(=O)C(C(C)C)NC1=O (stereo not given) (cyclo(GPIVFA); configuration not given here) | – | – | inactive |
| OCC1OC(n2cnc(C3=NCCCN3)n2)C(O)C1O (stereo not given) | – | – | inactive |
| CC(=O)Nc1nc(N)nc(NC(C)=O)c1N=O | < 3.70 | 4.51 | – |
| CC(CCC(=O)O)[C@H]1CCC2[C@H]3C(CC[C@@]21C)[C@@]1(C)CCC(O)C[C@H]1C[C@@H]3O (stereo not given in full) | < 3.70 | < 4.00 | – |
| N#CNc1nc(C(=O)Nc2ccc(Cl)cc2)cc(-c2ccccc2)n1 | < 3.45 | < 3.45 | – |
| Cc1oc(N)c(S(=O)(=O)c2ccc(Cl)cc2)c1C | < 3.70 | 4.46 | – |
| O=P1(Nc2ccccc2)NCCCO1 (stereo not given) | < 3.70 | < 3.70 | – |
| NC(N)=NS(=O)(=O)c1ccc(NC(=O)c2ccc(Cl)c3c(Nc4ccc(S(=O)(=O)N=C(N)N)cc4)c4ccccc4nc23)cc1 | < 4.55 | < 4.55 | – |
| C[C@@H](CC(=O)OCc1ccccc1)OC1OC(COC(=O)C(C)(C)C)C(OC(=O)C(C)(C)C)C(OC(=O)C(C)(C)C)C1OC(=O)C(C)(C)C (stereo not given in full) | < 3.70 | < 3.70 | – |
| COCCCN1C(=O)C2c3[nH]c4ccccc4c3C3CCC(C(C)(C)C)CC3C2C1=O (stereo not given) | < 3.70 | 4.50 | – |

| SMILES | pEC50 | pIC50 | outcome |
| --- | --- | --- | --- |
| O=C(O)CNCc1c2ccccc2[n+]([O-])c2ccccc12 | – | – | inactive |
| CCO[C@@H]1OC(=O)[C@H]2C(c3ccccc3)=NO[C@@H]12 | < 3.56 | < 3.56 | – |
| COC(=O)C(=O)C(C(C)=O)C(=O)NCc1ccccc1 (stereo not given) | 4.32 | 4.17 | – |
| CS(=O)(=O)NC12CCC(c3ccccc31)c1ccccc12 | < 3.70 | < 3.70 | – |
| C[C@H]1O[C@@H](c2c(O)ccc3ccccc23)C[C@@H](N(C)C)C1O (stereo not given in full) | < 3.70 | 4.01 | – |
| CN(C)C1C(=O)C(C(=O)NCNCCCO)=C(O)C2(O)C(=O)C3=C(O)c4c(O)cccc4C(C)(O)C3CC12 (stereo not given) | < 3.69 | < 4.00 | – |
| CC(C)=CC[P+](CCC[P+](CC=C(C)C)(c1ccccc1)c1ccccc1)(c1ccccc1)c1ccccc1 | < 4.24 | < 4.24 | – |
| O=C(CN1CCN(Cc2ccccc2)CC1)N1CCCn2c1nc1ccccc1c2=O | < 3.70 | < 3.70 | – |
| O=C(O)CCC1c2[nH]c3ccccc3c2CCN1Cc1ccccc1 (stereo not given) | – | – | inactive |
| COc1ccc(/C=N/N=C(\N)NO)c(O)c1 | < 3.70 | 4.98 | – |
| O=C(/C=C/c1ccccc1)NC1C=Nc2ccccc2NC1=O (stereo not given) | 3.83 | < 3.70 | – |
| COc1cc(OC)c2c(=O)c3cccc(C)c3n(C)c2c1 | < 3.70 | 4.02 | – |
| N#C/C(=C\c1cccc(Cl)c1)C(=O)c1ccccc1 | < 3.95 | 4.26 | – |
| COc1cccc(/C=C2\CCCc3ccccc3C2=O)c1 | < 3.70 | 4.58 | – |
| O=C(O)CCCCCCCCC(=O)O | < 3.75 | < 3.75 | – |
| CCn1c(=O)c(C(=O)O)c(Cl)c2cc3c(cc21)OCO3 | – | – | inactive |
| Cn1c(=O)c2nc(-c3ccc(Cl)c(Cl)c3)c(-c3ccc(Cl)c(Cl)c3)nc2n(C)c1=O | < 3.70 | 4.53 | – |
| O=C(Nc1ccc(S(=O)(=O)N[C@@H](C(=O)O)c2ccccc2)cc1)c1ccc(F)cc1 | – | – | inactive |
| C/C=C/c1cc2c(c(=O)o1)C(=O)[C@@H](O)[C@H](C)O2 | < 3.70 | 5.43 | – |
| CC(=O)/C(=C/c1cccc(F)c1)C(=O)c1ccccc1 | < 4.71 | < 4.71 | – |
